Test results from article PMC3391414 (Journal of Agricultural and Food Chemistry, 2011).
Entries after “also recorded” stand apart in the source; their conditions may differ. Like-named read-outs stand apart in the source and are kept apart here.

Experiments:
UGT1A3 [1] = target: T1, UGT1A3 (Homo sapiens, UniProt P35503); test: Glucuronidation by recombinant human UGT1A3
T1 sequence (P35503 29-534): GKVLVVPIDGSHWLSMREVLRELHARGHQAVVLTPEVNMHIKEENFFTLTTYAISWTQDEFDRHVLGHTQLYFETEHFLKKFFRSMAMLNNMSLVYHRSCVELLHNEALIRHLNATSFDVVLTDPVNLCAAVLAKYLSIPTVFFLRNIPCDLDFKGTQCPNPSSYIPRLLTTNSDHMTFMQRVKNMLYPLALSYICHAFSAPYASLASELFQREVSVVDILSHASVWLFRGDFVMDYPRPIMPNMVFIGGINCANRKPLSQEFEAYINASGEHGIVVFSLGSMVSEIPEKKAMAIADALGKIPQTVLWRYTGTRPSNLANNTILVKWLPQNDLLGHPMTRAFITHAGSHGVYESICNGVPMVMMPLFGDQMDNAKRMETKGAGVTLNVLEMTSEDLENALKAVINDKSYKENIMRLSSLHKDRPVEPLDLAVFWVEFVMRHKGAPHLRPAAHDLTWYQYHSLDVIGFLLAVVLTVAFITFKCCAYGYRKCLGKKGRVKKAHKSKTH

UGT1A3 [2] = target: T1, UGT1A3; details: pH 7.4
UGT1A6 = target: T2, UGT1A6 (Homo sapiens, UniProt P19224); details: 10 μM, pH 7.4
T2 sequence (P19224 27-532): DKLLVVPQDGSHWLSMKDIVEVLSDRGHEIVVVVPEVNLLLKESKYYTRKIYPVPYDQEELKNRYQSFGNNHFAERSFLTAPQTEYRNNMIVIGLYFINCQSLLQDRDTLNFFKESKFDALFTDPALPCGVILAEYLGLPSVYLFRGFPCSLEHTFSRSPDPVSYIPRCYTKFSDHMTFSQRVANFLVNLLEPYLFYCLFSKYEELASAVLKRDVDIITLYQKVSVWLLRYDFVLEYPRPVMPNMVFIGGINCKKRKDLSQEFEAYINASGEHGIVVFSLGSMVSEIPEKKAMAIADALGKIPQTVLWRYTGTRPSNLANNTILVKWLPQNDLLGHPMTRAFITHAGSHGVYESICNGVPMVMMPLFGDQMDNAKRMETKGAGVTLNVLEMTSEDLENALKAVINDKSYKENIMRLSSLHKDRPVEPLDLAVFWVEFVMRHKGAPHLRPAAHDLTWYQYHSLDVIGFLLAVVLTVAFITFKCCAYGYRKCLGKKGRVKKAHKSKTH

UGT1A1 = target: T3, UGT1A1 (Homo sapiens, UniProt P22309); details: 10 μM, pH 7.4
T3 sequence (P22309 26-533): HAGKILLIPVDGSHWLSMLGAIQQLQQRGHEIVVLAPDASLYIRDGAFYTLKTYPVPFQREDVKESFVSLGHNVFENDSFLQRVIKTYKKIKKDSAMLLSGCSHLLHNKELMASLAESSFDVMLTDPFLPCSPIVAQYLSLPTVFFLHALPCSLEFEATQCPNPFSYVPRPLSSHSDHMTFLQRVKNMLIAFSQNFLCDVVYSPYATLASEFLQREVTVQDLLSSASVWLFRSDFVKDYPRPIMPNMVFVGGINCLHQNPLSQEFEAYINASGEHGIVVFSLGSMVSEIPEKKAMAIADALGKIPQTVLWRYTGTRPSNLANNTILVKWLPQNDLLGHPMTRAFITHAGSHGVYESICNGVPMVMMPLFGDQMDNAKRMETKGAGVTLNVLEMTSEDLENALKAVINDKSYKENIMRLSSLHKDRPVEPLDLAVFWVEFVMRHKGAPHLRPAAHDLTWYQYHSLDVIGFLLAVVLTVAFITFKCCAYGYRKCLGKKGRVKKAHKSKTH

UGT1A7 = target: T4, UGT1A7 (Homo sapiens, UniProt Q9HAW7); details: 10 μM, pH 7.4
T4 sequence (Q9HAW7 26-530): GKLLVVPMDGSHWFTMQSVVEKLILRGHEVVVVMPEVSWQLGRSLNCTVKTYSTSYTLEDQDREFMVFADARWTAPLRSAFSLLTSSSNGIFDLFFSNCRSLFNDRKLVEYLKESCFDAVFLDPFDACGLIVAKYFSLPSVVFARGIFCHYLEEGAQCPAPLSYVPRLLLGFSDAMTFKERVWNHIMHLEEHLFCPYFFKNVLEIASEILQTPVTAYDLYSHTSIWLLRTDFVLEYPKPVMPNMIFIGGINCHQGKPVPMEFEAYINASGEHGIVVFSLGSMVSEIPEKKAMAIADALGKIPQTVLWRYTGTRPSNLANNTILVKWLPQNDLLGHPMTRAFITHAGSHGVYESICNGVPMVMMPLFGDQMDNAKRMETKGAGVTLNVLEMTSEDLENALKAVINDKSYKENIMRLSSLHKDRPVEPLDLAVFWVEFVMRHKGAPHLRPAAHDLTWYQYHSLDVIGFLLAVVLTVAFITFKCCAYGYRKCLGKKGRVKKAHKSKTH

Row | Compound | Degree of regiospecificity (major glucuronide in bracket) (UGT1A3 [1]; UGT1A3, substrate 2.5 μM) | Degree of regiospecificity (major glucuronide in bracket) (UGT1A3 [1]; UGT1A3, substrate 10 μM) | Hydroxyl positions glucuronidated (UGT1A3 [1]; UGT1A3, substrate 10 μM) | Degree of regiospecificity (major glucuronide in bracket) (UGT1A3 [1]; UGT1A3, substrate 10 μM, listed as 5,7,4’THFnol) | Degree of regiospecificity (major glucuronide in bracket) (UGT1A3 [2]; 2.5 μM) | Hydroxyl positions glucuronidated (UGT1A3 [2]; 10 μM) | Hydroxyl positions glucuronidated (UGT1A6) | Hydroxyl positions glucuronidated (UGT1A1) | Hydroxyl positions glucuronidated (UGT1A7)
1 | O=c1c(O)c(-c2ccc(O)cc2)oc2cc(O)cc(O)c12 [5,7,4'THFnol, 3,5,7,4’-tetrahydroxyflavone] | No (3-O, 7-O) | No (3-O, 7-O) | glucuronidated 3-O, 7-O and 4’-O | no regiospecific preference between 3-O and 7-O; also recorded: did not show dominant regiospecificity for 7-O position |  |  |  |  | 
2 | O=c1cc(-c2ccccc2)oc2cc(O)cc(O)c12 [5,7DHF, 5,7-dihydroxyflavone] |  |  |  |  | Dominant (7-O) | glucuronidated 7-O position only | glucuronidated both 7-O and 5-O positions | glucuronidated 7-O position only | glucuronidated 7-O position only
